Measured values reported in ChEMBL document CHEMBL3507680, “University of Dundee, Gates Library screen for HepG2 cell viability”.

Test: Human HepG2 cell viability assay in 384 well format
Assay type: toxicity, cell-based
Set-up: dose 125 nL, time 70.5 hour; cytotoxicity at 70.5 h: concentration not given beside the values
Settings: HepG2 cells, read-out: Inhibition

| Structure (SMILES) | cytotoxicity at 70.5 h [%] |
| --- | --- |
| Cc1nccn1-c1ccc(C(=O)NCC(F)(F)F)nn1 | -1.99 |
| COc1ccccc1C(O)Cn1cc(C(=O)NCc2ccco2)nn1 (stereo not given) | 0.751 |
| CC(C)NC(=O)NCCn1nc(C(F)(F)F)n(C)c1=O | -4.05 |
| Cc1ccccc1NC(=O)NCCn1nc(C(F)(F)F)n(C)c1=O | -2.02 |
| O=C(CN1CCC(c2nnc(C(F)(F)F)o2)CC1)Nc1cccnc1 | -3.9 |
| O=C(CN1CCC(c2nnc(C(F)(F)F)o2)CC1)NCc1ccccc1 | -0.907 |
| O=C(c1nnn(-c2ccccc2F)c1-c1ccccn1)N1CCSCC1 | -0.794 |
| COC(=O)N1CCc2ccccc2C1C(=O)NCC(F)(F)F (stereo not given) | -5.95 |
| O=C(NC1CCN(c2ccc(-c3ccccc3F)nn2)C1)c1ccc[nH]1 (stereo not given) | 10.6 |
| O=C(NC1CCN(c2ccc(-c3ccccc3F)nn2)C1)C1CCC1 (stereo not given) | 1.72 |
| Cc1noc(-c2ccc(N3CCCC(C(N)=O)C3)nc2)n1 (stereo not given) | -0.883 |
| CN1CCN(c2cc(NC(=O)Cn3ccc4ccccc43)ncn2)CC1 | 1.47 |
| O=C(Nc1cc(N2CCOCC2)ncn1)c1cnccn1 | -3.66 |
| CCOc1ccc(NC(=O)Nc2cc(N3CCCCC3)ncn2)cc1 | -1.28 |
| O=C(Cc1c(F)cccc1Cl)Nc1cc(N2CCCC2)ncn1 | -2.78 |
| COc1ncccc1C(=O)NCCn1cnc(C)cc1=O | -2.32 |
| COc1ccc(S(=O)(=O)NCCn2cnc(C)cc2=O)cc1C | -9.08 |
| O=C(NCCn1cnc(C2CCCC2)cc1=O)c1ccc(=O)[nH]n1 | -0.636 |
| CC(C)NC(=O)NCCn1cnc(C2CCCC2)cc1=O | -6.52 |
| Cc1ccc(NC(=O)NCCn2cnc(C)c(C)c2=O)cc1F | -1.25 |
| Cc1ncn(CCNC(=O)Nc2ccc(OC(F)(F)F)cc2)c(=O)c1C | -3.32 |
| Cn1nc(N2CCCC(C(=O)Nc3nc4ccccc4[nH]3)C2)ccc1=O (stereo not given) | -10 |

| Structure (SMILES) | cytotoxicity at 70.5 h [%] |
| --- | --- |
| COc1cc(NC(=O)C2CC(=O)N(c3cccc(F)c3)C2)ncn1 (stereo not given) | -3.43 |
| COc1cccc2sc(N3CC(OC(C)=O)C3)nc12 | -11.2 |
| COC(=O)c1ccc(S(=O)(=O)NCC(O)c2sccc2C)cc1 (stereo not given) | -2.62 |
| COCC(C)(O)CNC(=O)c1cc(-c2ccc(F)cc2)nn1C (stereo not given) | 1.82 |
| COC(=O)c1ccc(S(=O)(=O)NCC(C)(O)c2cccs2)cc1 (stereo not given) | -9.34 |
| O=C1CCSCC(C(=O)N2CCC(O)CC2)N1 (stereo not given) | -10.8 |
| O=C1CCSCC(C(=O)N2CCC3(CC2)OCCO3)N1 (stereo not given) | -14.2 |
| Cc1csc(NC(=O)C2CSCCC(=O)N2)n1 (stereo not given) | -0.709 |
| CNC(=O)Cc1csc(NC(=O)C2CSCCC(=O)N2)n1 (stereo not given) | 14.7 |
| Cn1nnc2c(N3CC(C(=O)NCc4ccccc4F)C3)ncnc21 | -8.25 |
| CCCc1nnsc1C(=O)NCC(O)c1ccoc1 (stereo not given) | -11.2 |
| O=C(NCC(O)c1ccoc1)Nc1cccs1 (stereo not given) | -6.41 |
| O=C(NCC(O)c1ccoc1)Nc1c(F)cccc1F (stereo not given) | -9.03 |
| CCOc1ccccc1C(=O)NCCc1ccoc1 | -13.5 |
| COC(=O)c1sccc1S(=O)(=O)NCCc1ccoc1 | -5.25 |
| O=C(c1ccc2[nH]cnc2c1)N1CCC(Oc2ccccn2)CC1 | 1.58 |
| CN1CCCC(C(=O)N2CCC(Oc3ccccn3)CC2)C1 (stereo not given) | -7.47 |
| Cc1noc(C)c1S(=O)(=O)N1CCC(Oc2ccccn2)CC1 | 10 |
| CCOC(=O)N1CCC(Oc2ccc(C(F)(F)F)cn2)CC1 | -7.88 |
| O=C(Cn1cccn1)N1CCC(Oc2ccc(C(F)(F)F)cn2)CC1 | -0.904 |
| CN(CC(=O)N1CCC(Oc2ccc(C(F)(F)F)cn2)CC1)S(C)(=O)=O | 0.51 |
| O=C(CCn1ccc(=O)[nH]c1=O)N1CCC(Oc2ncccc2Cl)CC1 | -6.14 |

| Structure (SMILES) | cytotoxicity at 70.5 h [%] |
| --- | --- |
| O=C(NCc1ccccc1)N1CCC(Oc2ncccc2Cl)CC1 | 11 |
| O=S(=O)(c1cc(F)cc(F)c1)N1CCC(Oc2ccc(Cl)cn2)CC1 | 2 |
| N#Cc1cccnc1OC1CCN(C(=O)NCc2ccccc2)CC1 | -4.78 |
| N#Cc1cccnc1OC1CCN(S(=O)(=O)c2c(F)cccc2F)CC1 | 39.9 |
| N#Cc1ccc(OC2CCN(C(=O)c3ccccc3Cl)CC2)nc1 | -5.83 |
| CN1CCCC(C(=O)N2CCC(Oc3ncccn3)CC2)C1 (stereo not given) | -4.47 |
| Cc1noc(C)c1S(=O)(=O)N1CCC(Oc2cccnn2)CC1 | -0.269 |
| O=C(c1cc(C2CC2)on1)N1CCC(Oc2ncccc2Br)CC1 | -13.4 |
| CC(=O)Nc1cnc(Oc2ccccc2F)nc1 | -5.65 |
| O=C(c1ccccn1)N1CCN(c2ccc(-n3cccc3)nn2)CC1 | -4.16 |
| COCC(=O)N1CCN(c2cc(-n3cccc3)nc(C)n2)CC1 | 5.98 |
| Cc1nc(N2CCN(C(=O)c3cccs3)CC2)cc(-n2cccc2)n1 | 1.27 |
| Cc1nc(N2CCN(C(=O)c3cccnc3)CC2)cc(-n2cccc2)n1 | 4.9 |
| Cc1cncc(C(=O)N2CCCC3(CCCN3S(C)(=O)=O)C2)c1 (stereo not given) | -8.81 |
| O=C(c1ccco1)N1CCC2(CC1)C(=O)Nc1ccccc12 | -9.22 |
| O=C1CC2(CCN(Cc3cccs3)C2)CN1c1cccc(F)c1 (stereo not given) | -11 |
| CS(=O)(=O)N1CCCC12CCCN(C(=O)c1ccc3[nH]ccc3c1)C2 (stereo not given) | -10.6 |
| CN(C)CC(=O)N1CCC2(CC1)COCCN(c1ncccn1)C2 | 22.5 |
| Cc1ccc2c(n1)N(CCn1cccn1)CCN(C(=O)NC(C)C)C2 | 21.7 |
| Cc1cnc(C(=O)N2CCc3ncnc(-c4cnn(C)c4)c3CC2)cn1 | 0.39 |
| Cn1cc(-c2ncnc3c2CCN(C(=O)c2cnccn2)CC3)cn1 | 1.04 |
| Cc1noc(C2CCC3(CCN(C(=O)c4cc(C5CC5)on4)CC3)O2)n1 (stereo not given) | -0.565 |

| Structure (SMILES) | cytotoxicity at 70.5 h [%] |
| --- | --- |
| O=C1CCCN1Cc1ncn2c1CN(C(=O)Cc1cccs1)CCC2 | -1.17 |
| CCn1ncc2c1C(COC)CN(Cc1nccs1)C2 (stereo not given) | 30.6 |
| CCOCC1CN(Cc2ccsc2)Cc2cnn(C)c21 (stereo not given) | -0.486 |
| CCn1ncc2c1C(COC)CN(Cc1ccco1)C2 (stereo not given) | 3.48 |
| CNC(=O)[C@@]12CCC3(CCN(C(=O)COC)CC3)[C@@H]1CN(S(C)(=O)=O)C2 | 4.47 |
| COCc1ncn2c1CN(C(=O)c1ccco1)CC2 | 1.28 |
| COCCO[C@H]1CCN(Cc2cnn(C)c2)[C@H]1Cc1cccnc1 | -3.42 |
| COCCO[C@H]1CCN(Cc2ccoc2)[C@H]1Cc1cccnc1 | -0.128 |
| CCc1ccc(S(=O)(=O)N2CCCC3(CCCN3S(C)(=O)=O)C2)cc1 (stereo not given) | 22.3 |
| COCc1ncn2c1CN(C(=O)c1cnc3ccccc3c1)CC2 | 1.48 |
| Cn1ncc2c1C(COCC1CC1)CN(Cc1ccsc1)C2 (stereo not given) | 2.88 |
| CS(=O)(=O)N1CCCC12CCCN(S(=O)(=O)c1ccc(F)c(F)c1)C2 (stereo not given) | 2.95 |
| CC(C)c1ccc(S(=O)(=O)N2CCCC3(CCCN3S(C)(=O)=O)C2)cc1 (stereo not given) | 39.5 |
| O=C(C1CC1)N1CCC2(COCc3cnc(NCc4ccco4)nc32)C1 (stereo not given) | -2.45 |
| O=C1CC2(CCN(c3nncs3)C2)CN1c1ccc2c(c1)OCCO2 (stereo not given) | -1.06 |
| O=C(c1ccccn1)N1CCC2(CC1)C(=O)Nc1ccccc12 | -9.49 |
| O=C(CC1CC1)N1CC[C@H]2OCC[C@@]2(COc2ncccc2F)C1 | -21.5 |
| O=C1CCCN1Cc1ncn2c1CN(C(=O)N1CCCC1)CCC2 | 0.134 |
| CCS(=O)(=O)N1Cc2ncn(CC3CC3)c2C(COCC2CC2)C1 (stereo not given) | 1.64 |
| CCS(=O)(=O)N1CCN(CCn2cccn2)c2nc(C)ccc2C1 | -2.39 |
| CN(C)C(=O)N1CCC2(CCCN(c3ncccn3)C2)C1 (stereo not given) | 5.18 |
| CC(C)N1CCC2(CC1)CC(NS(C)(=O)=O)c1ccccc1O2 (stereo not given) | 4.16 |

| Structure (SMILES) | cytotoxicity at 70.5 h [%] |
| --- | --- |
| Cc1ccsc1CN1C[C@@H]2COC[C@]2(COCC(=O)N(C)C)C1 | -0.655 |
| CN(C)C(=O)COC[C@]12COC[C@H]1CN(CCc1ccccc1)C2 | -1.91 |
| COCc1ncn2c1CN(C(=O)c1cccc3cccnc13)CC2 | 19.6 |
| CC(C)NC(=O)c1ccc2c(c1)C1(CCN(C(C)C)CC1)C(=O)N2 | 0.266 |
| CC(C)COC[C@@H]1CC[C@H]2[C@H](CCN2C(=O)c2ccncc2F)O1 | 1.98 |
| CCN1CCC2(CC1)C(=O)Nc1ccc(C(=O)NC)cc12 | 4.51 |
| CS(=O)(=O)NC1CC2(CCN(CC3CC3)CC2)Oc2ccccc21 (stereo not given) | 1.75 |
| CNC(=O)c1ccc2c(c1)C1(CCN(CCOC)CC1)C(=O)N2 | 0.0675 |
| O=c1ccc2c([nH]1)CCC(NCc1ccc3c(c1)OCO3)C2 (stereo not given) | -1.6 |
| Cc1ccc(CN2C[C@@H]3[C@@H](C(=O)NCC(C)C)CCS(=O)(=O)[C@@H]3C2)cc1 | -1.42 |
| CN(C)CCn1c2c(ccc1=O)CCN(C(=O)c1cccs1)CC2 | -5.63 |
| Cc1ccc(C(=O)N2CCc3ccc(=O)n(CCN(C)C)c3CC2)o1 | -4.04 |
| CNC(=O)CN1CC[C@H]2CN(C(=O)c3ccc(C)cc3)C[C@H]2C1 | -4.71 |
| Cc1ccc(CN2C[C@@H]3[C@@H](C(=O)NCC4CC4)CCS(=O)(=O)[C@@H]3C2)cc1 | -1.55 |
| Cc1cccc(CN2C[C@@H]3[C@@H](C(=O)NCC(C)C)CCS(=O)(=O)[C@@H]3C2)c1 | -6.13 |
| O=C(NCC1CCOCC1)[C@@H]1CC[C@@H]2[C@@H](CCN2Cc2ccncc2)O1 | -0.695 |
| Cn1ccnc1C(=O)NCc1cnc2n1CCN(CC1CC1)CC2 | -0.996 |
| CN1CCc2cc(C(=O)N(C)C)c(NCC3CC3)nc2CC1 | -1.63 |
| Cc1nc(CN2CC[C@@H](OCC3CC3)[C@@H]2Cc2cccnc2)cs1 | -0.893 |
| Cc1ccc(N[C@@H]2CN(Cc3cc(C)on3)C[C@@H]3CCCO[C@@H]32)nn1 | 2.24 |
| CN(C)CCOCC1CN(Cc2ccncc2)Cc2nnn(C)c21 (stereo not given) | 1.9 |
| CN(C)CCN1CCN(Cc2cccc(C#N)c2)Cc2cccnc21 | -2.4 |
